Experimental data as given in ChEMBL document CHEMBL3046385, “Synthesis and bioactivity of novel 3-(1-hydroxyethylidene)-5-substituted-pyrrolidine-2,4-dione derivatives” (Chin Chem Lett, 2012).
≈ marks a conversion by molar mass, not a printed value.

Assays:
[1] = tested on: Echinochloa crus-galli; assay: Herbicidal activity against Echinochloa crus-galli (barnyard grass) assessed as stalk inhibition at 100 mg/l; assay type: functional
[2] = tested on: Echinochloa crus-galli; assay: Herbicidal activity against Echinochloa crus-galli (barnyard grass) assessed as root inhibition at 100 mg/l; assay type: functional
[3] = tested on: Echinochloa crus-galli; assay: Herbicidal activity against Echinochloa crus-galli (barnyard grass) assessed as stalk inhibition; assay type: functional, organism-based
[4] = tested on: Brassica rapa subsp. oleifera; assay: Herbicidal activity against Brassica rapa subsp. oleifera assessed as root inhibition at 100 mg/l; assay type: functional
[5] = tested on: Brassica rapa subsp. oleifera; assay: Herbicidal activity against Brassica rapa subsp. oleifera assessed as root inhibition; assay type: functional, organism-based

Molecule `CCCCCCC1NC(=O)/C(=C(/C)O)C1=O` (centres undefined) has an inhibition at 100 µg/mL [1] of 66.9%, an inhibition at 100 µg/mL [2] of 47.8% and an EC50 [3] of 72.7 µg/mL (≈ 323 µM). The inhibition at 100 µg/mL [4] was 43.1%.

`COc1ccc(CC2NC(=O)/C(=C(/C)O)C2=O)cc1` (centres undefined) gave an inhibition at 100 µg/mL [1] of 41.2%, an inhibition at 100 µg/mL [2] of 32.8% and an inhibition at 100 µg/mL [4] of 62.9%.

`C/C(O)=C1/C(=O)NC(Cc2ccc(Cl)cc2Cl)C1=O` (centres undefined) was tested, and the inhibition at 100 µg/mL [1] was 19.1%, the inhibition at 100 µg/mL [2] was 31.6% and the inhibition at 100 µg/mL [4] was 59.3%.

`COc1ccc(C(=O)CC2NC(=O)/C(=C(/C)O)C2=O)cc1` (centres undefined) showed an inhibition at 100 µg/mL [1] of 62.6%, an inhibition at 100 µg/mL [2] of 61.5% and an EC50 [3] of 94.4 µg/mL (≈ 326 µM). The inhibition at 100 µg/mL [4] was 45.9%.

For `C/C(O)=C1/C(=O)NC(CC(=O)c2ccccc2)C1=O` (centres undefined), the inhibition at 100 µg/mL [1] was 36.4%, the inhibition at 100 µg/mL [2] was 47.9% and the inhibition at 100 µg/mL [4] was 66.9%.

`C/C(O)=C1/C(=O)NC(C/C=C/c2ccccc2)C1=O` (centres undefined) gave an EC50 [5] of 39.2 µg/mL (≈ 152 µM), an inhibition at 100 µg/mL [1] of 42.5% and an inhibition at 100 µg/mL [2] of 54%. It also gave an inhibition at 100 µg/mL [4] of 90.4%.

Molecule `CCCCC1NC(=O)/C(=C(/C)O)C1=O` (centres undefined) has an inhibition at 100 µg/mL [1] of 32.3%, an inhibition at 100 µg/mL [2] of 38.5% and an inhibition at 100 µg/mL [4] of 46.3%.

Work on `C/C(O)=C1/C(=O)NC(Cc2ccc(Cl)cc2)C1=O` (centres undefined) yielded an EC50 [5] of 25.5 µg/mL (≈ 96 µM), an inhibition at 100 µg/mL [1] of 37.8% and an inhibition at 100 µg/mL [2] of 49.6%. The inhibition at 100 µg/mL [4] was 89.7%.

`C/C(O)=C1/C(=O)NC(Cc2ccccc2Cl)C1=O` (centres undefined) showed an inhibition at 100 µg/mL [1] of 35.7%, an inhibition at 100 µg/mL [2] of 37.3% and an inhibition at 100 µg/mL [4] of 41.8%.

Molecule `C/C(O)=C1/C(=O)NC(Cc2ccc([N+](=O)[O-])cc2)C1=O` (centres undefined) has an inhibition at 100 µg/mL [1] of 41.6%, an inhibition at 100 µg/mL [2] of 64.3% and an inhibition at 100 µg/mL [4] of 45.7%.
